Values of other authors as cited in article PMC12454493, “Insight on novel sulfamoylphenyl pyrazole derivatives as anticancer carbonic anhydrase inhibitors” (Molecular Diversity, 2024).

Tests used:
[1] = molecular target: hCA XII (Homo sapiens, UniProt O43570); details: cited from earlier work
[2] = molecular target: hCA IX (Homo sapiens, UniProt Q16790); details: cited from earlier work

Chain of hCA XII (O43570 25-354): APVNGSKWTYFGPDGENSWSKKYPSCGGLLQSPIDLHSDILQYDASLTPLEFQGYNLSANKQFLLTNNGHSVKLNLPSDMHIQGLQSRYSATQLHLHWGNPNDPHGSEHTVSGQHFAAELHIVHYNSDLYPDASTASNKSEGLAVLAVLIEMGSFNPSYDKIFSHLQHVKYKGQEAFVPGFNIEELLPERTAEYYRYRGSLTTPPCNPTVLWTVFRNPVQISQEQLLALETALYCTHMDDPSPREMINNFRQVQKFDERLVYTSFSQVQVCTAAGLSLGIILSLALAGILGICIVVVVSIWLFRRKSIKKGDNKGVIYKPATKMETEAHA

In the case of `COc1ccc(C2CC(C3=CC=CCC3=S)=NN2c2ccc(S(N)(=O)=O)cc2)c(OC)c1OC` (centres unmarked) [IV], the Ki [1] is listed as 9 nM and the Ki [2] is listed as 44 nM.
